Legend:
Format in all cases: in vivo
Spodoptera littoralis = Spodoptera littoralis (Egyptian cotton leafworm) leaf disc test; details: foliar, 72 h, application rate 200 ppm, cotton leaf discs, L1 larvae, mortality, feeding behavior, growth regulation 3 DAT
Description: Spodoptera littoralis (Egyptian Cotton Leafworm): Cotton leaf discs were placed on agar in a 24-well microtiter plate and sprayed with test solutions at an application rate of 200 ppm. After drying, the leaf discs were infested with 5 L1 larvae. The samples were checked for mortality, feeding behavior, and growth regulation 3 days after treatment (DAT).

Tetranychus urticae = Tetranychus urticae (two-spotted spider mite) leaf disc test; details: foliar, 192 h, application rate 200 ppm, bean leaf discs, 8 days
Description: Bean leaf discs on agar in 24-well microtiter plates were sprayed with test solutions at an application rate of 200 ppm. After drying, the leaf discs are infested with mite populations of mixed ages. 8 days later, discs are checked for egg mortality, larval mortality, and adult mortality.

Heliothis virescens = Heliothis virescens (tobacco budworm) egg/larval test on artificial diet; details: 96 h, application rate 200 ppm (concentration in well 18 ppm), eggs on artificial diet, 4 days
Experimental: Eggs (0-24 h old) were placed in 24-well microtiter plate on artificial diet and treated with test solutions at an application rate of 200 ppm (concentration in well 18 ppm) by pipetting. After an incubation period of 4 days, samples were checked for egg mortality, larval mortality, and growth regulation.

Myzus persicae = Myzus persicae (green peach aphid), systemic test; details: 144 h, application rate 12.5 ppm, roots of pea seedlings in test solution, 6 days
Description: Myzus persicae (Green peach aphid), systemic test: Roots of pea seedlings, infested with an aphid population of mixed ages, are placed directly in the test solutions at an application rate of 12.5 ppm. 6 days after introduction, samples are checked for mortality and special effects on the plant. The following compounds gave at least 80% control of Myzus persicae: […]

Thrips tabaci = Thrips tabaci (onion thrips) leaf disc test; details: foliar, 168 h, application rate 200 ppm, sunflower leaf discs, 7 days
Experimental: Sunflower leaf discs were placed on agar in a 24-well microtiter plate and sprayed with test solutions at an application rate of 200 ppm. After drying, the leaf discs were infested with a thrips population of mixed ages. After an incubation period of 7 days, samples were checked for mortality.

Diabrotica balteata = Diabrotica balteata (corn root worm) larval test on artificial diet; details: 120 h, application rate 200 ppm (concentration in well 18 ppm), L2 larvae on artificial diet, 5 days
Experimental: (§1) Diabrotica balteata (Corn Root Worm): A 24-well microtiter plate (MTP) with artificial diet was treated with test solutions at an application rate of 200 ppm (concentration in well 18 ppm) by pipetting. After drying, the MTP's were infested with L2 larvae (6-10 per well). After an incubation period of 5 days, samples were checked for larval mortality and growth regulation.

Plutella xylostella = Plutella xylostella (diamond back moth) larval test on artificial diet; details: 144 h, application rate 200 ppm (concentration in well 18 ppm), L2 larvae on artificial diet, 6 days
Experimental: as §1, with “24-well” for “Diabrotica balteata (Corn Root Worm): A 24-well”, “(7-12” for “(6-10”, “6” for “5”

O=C(CSc1ccc(C2=NOC(c3cc(Cl)cc(Cl)c3)(C(F)(F)F)C2)cc1Cl)NCC(F)(F)F (centres unmarked) [Compound A5, 2-{2-Chloro-4-[5-(3,5-Dichloro-phenyl)-5-trifluoromethyl-4,5-dihydro-isoxazol-3-yl]-phenylsulfanyl}-N-(2,2,2-trifluoro-ethyl)-acetamide]
≥ 80%: pest or weed control at 200 ppm (Spodoptera littoralis) | pest or weed control at 200 ppm (Tetranychus urticae) | pest or weed control at 200 ppm (Heliothis virescens) | pest or weed control at 12.5 ppm (Myzus persicae) | pest or weed control at 200 ppm (Thrips tabaci) | pest or weed control at 200 ppm (Diabrotica balteata) | pest or weed control at 200 ppm (Plutella xylostella)

O=C(CSc1ccc(C2=NOC(c3cc(Cl)cc(Cl)c3)(C(F)(F)F)C2)cc1Br)NCC(F)(F)F (centres unmarked) [Compound A29, 2-{2-bromo-4-[5-(3,5-dichloro-phenyl)-5-trifluoromethyl-4,5-dihydro-isoxazol-3-yl]-phenylsulfanyl}-N-(2,2,2-trifluoro-ethyl)-acetamide]
≥ 80%: pest or weed control at 200 ppm (Spodoptera littoralis) | pest or weed control at 200 ppm (Tetranychus urticae) | pest or weed control at 200 ppm (Heliothis virescens) | pest or weed control at 12.5 ppm (Myzus persicae) | pest or weed control at 200 ppm (Thrips tabaci) | pest or weed control at 200 ppm (Diabrotica balteata) | pest or weed control at 200 ppm (Plutella xylostella)

O=C(C[S+]([O-])c1ccc(C2=NOC(c3cc(Cl)cc(Cl)c3)(C(F)(F)F)C2)cc1Br)NCC(F)(F)F (centres unmarked) [Compound A52, 2-{2-Bromo-4-[5-(3,5-dichloro-phenyl)-5-trifluoromethyl-4,5-dihydro-isoxazol-3-yl]-benzenesulfinyl}-N-(2,2,2-trifluoro-ethyl)-acetamide]
≥ 80%: pest or weed control at 200 ppm (Spodoptera littoralis) | pest or weed control at 200 ppm (Tetranychus urticae) | pest or weed control at 200 ppm (Heliothis virescens) | pest or weed control at 12.5 ppm (Myzus persicae) | pest or weed control at 200 ppm (Thrips tabaci) | pest or weed control at 200 ppm (Diabrotica balteata) | pest or weed control at 200 ppm (Plutella xylostella)

O=C(CS(=O)(=O)c1ccc(C2=NOC(c3cc(Cl)cc(Cl)c3)(C(F)(F)F)C2)cc1Br)NCC(F)(F)F (centres unmarked) [Compound A53, 2-{2-Bromo-4-[5-(3,5-dichloro-phenyl)-5-trifluoromethyl-4,5-dihydro-isoxazol-3-yl]-benzenesulfonyl}-N-(2,2,2-trifluoro-ethyl)-acetamide]
≥ 80%: pest or weed control at 200 ppm (Spodoptera littoralis) | pest or weed control at 200 ppm (Tetranychus urticae) | pest or weed control at 200 ppm (Heliothis virescens) | pest or weed control at 12.5 ppm (Myzus persicae) | pest or weed control at 200 ppm (Thrips tabaci) | pest or weed control at 200 ppm (Diabrotica balteata) | pest or weed control at 200 ppm (Plutella xylostella)

N#CC1(NC(=O)C[S+]([O-])c2ccc(C3=NOC(c4cc(Cl)cc(Cl)c4)(C(F)(F)F)C3)cc2Cl)CC1 (centres unmarked) [Compound A56, 2-[2-chloro-4-[5-(3,5-dichlorophenyl)-5-(trifluoromethyl)-4H-isoxazol-3-yl]phenyl]sulfinyl-N-(1-cyanocyclopropyl)acetamide]
≥ 80%: pest or weed control at 200 ppm (Spodoptera littoralis) | pest or weed control at 200 ppm (Tetranychus urticae) | pest or weed control at 200 ppm (Heliothis virescens) | pest or weed control at 12.5 ppm (Myzus persicae) | pest or weed control at 200 ppm (Thrips tabaci) | pest or weed control at 200 ppm (Diabrotica balteata) | pest or weed control at 200 ppm (Plutella xylostella)

N#CC1(NC(=O)CSc2ccc(C3=NOC(c4cc(Cl)cc(Cl)c4)(C(F)(F)F)C3)cc2Cl)CC1 (centres unmarked) [Compound A60, 2-[2-chloro-4-[5-(3,5-dichlorophenyl)-5-(trifluoromethyl)-4H-isoxazol-3-yl]phenyl]sulfanyl-N-(1-cyanocyclopropyl)acetamide]
≥ 80%: pest or weed control at 200 ppm (Spodoptera littoralis) | pest or weed control at 200 ppm (Tetranychus urticae) | pest or weed control at 200 ppm (Heliothis virescens) | pest or weed control at 12.5 ppm (Myzus persicae) | pest or weed control at 200 ppm (Thrips tabaci) | pest or weed control at 200 ppm (Diabrotica balteata) | pest or weed control at 200 ppm (Plutella xylostella)

N#CC1(NC(=O)CS(=O)(=O)c2ccc(C3=NOC(c4cc(Cl)cc(Cl)c4)(C(F)(F)F)C3)cc2Cl)CC1 (centres unmarked) [Compound A61, 2-[2-chloro-4-[5-(3,5-dichlorophenyl)-5-(trifluoromethyl)-4H-isoxazol-3-yl]phenyl]sulfonyl-N-(1-cyanocyclopropyl)acetamide]
≥ 80%: pest or weed control at 200 ppm (Spodoptera littoralis) | pest or weed control at 200 ppm (Tetranychus urticae) | pest or weed control at 200 ppm (Heliothis virescens) | pest or weed control at 200 ppm (Thrips tabaci) | pest or weed control at 200 ppm (Diabrotica balteata) | pest or weed control at 200 ppm (Plutella xylostella)

O=C(CSc1ccc(C2=NCC(c3cc(Cl)cc(Cl)c3)(C(F)(F)F)C2)cc1Cl)NCC(F)(F)F (centres unmarked) [Compound B1, 2-{2-Chloro-4-[4-(3,5-dichloro-phenyl)-4-trifluoromethyl-4,5-dihydro-3H-pyrrol-2-yl]-phenylsulfanyl}-N-(2,2,2-trifluoro-ethyl)-acetamide]
≥ 80%: pest or weed control at 200 ppm (Spodoptera littoralis) | pest or weed control at 200 ppm (Tetranychus urticae) | pest or weed control at 200 ppm (Heliothis virescens) | pest or weed control at 12.5 ppm (Myzus persicae) | pest or weed control at 200 ppm (Thrips tabaci) | pest or weed control at 200 ppm (Diabrotica balteata) | pest or weed control at 200 ppm (Plutella xylostella)

O=C(C[S+]([O-])c1ccc(C2=NCC(c3cc(Cl)cc(Cl)c3)(C(F)(F)F)C2)cc1Cl)NCC(F)(F)F (centres unmarked) [Compound B2, 2-{2-Chloro-4-[4-(3,5-dichloro-phenyl)-4-trifluoromethyl-4,5-dihydro-3H-pyrrol-2-yl]-benzenesulfinyl}-N-(2,2,2-trifluoro-ethyl)-acetamide]
≥ 80%: pest or weed control at 200 ppm (Spodoptera littoralis) | pest or weed control at 200 ppm (Tetranychus urticae) | pest or weed control at 200 ppm (Heliothis virescens) | pest or weed control at 12.5 ppm (Myzus persicae) | pest or weed control at 200 ppm (Thrips tabaci) | pest or weed control at 200 ppm (Diabrotica balteata) | pest or weed control at 200 ppm (Plutella xylostella)

O=C(CS(=O)(=O)c1ccc(C2=NCC(c3cc(Cl)cc(Cl)c3)(C(F)(F)F)C2)cc1Cl)NCC(F)(F)F (centres unmarked) [Compound B3, 2-{2-chloro-4-[4-(3,5-Dichloro-phenyl)-4-trifluoromethyl-4,5-dihydro-3H-pyrrol-2-yl]-benzenesulfonyl}-N-(2,2,2-trifluoro-ethyl)-acetamide]
≥ 80%: pest or weed control at 200 ppm (Spodoptera littoralis) | pest or weed control at 200 ppm (Tetranychus urticae) | pest or weed control at 200 ppm (Heliothis virescens) | pest or weed control at 12.5 ppm (Myzus persicae) | pest or weed control at 200 ppm (Thrips tabaci) | pest or weed control at 200 ppm (Diabrotica balteata) | pest or weed control at 200 ppm (Plutella xylostella)

Cc1cc(C2=NO[C@@](c3cc(Cl)cc(Cl)c3)(C(F)(F)F)C2)ccc1SCC(=O)NCC(F)(F)F [Compound C4, 2-{4-[(S)-5-(3,5-Dichloro-phenyl)-5-trifluoromethyl-4,5-dihydro-isoxazol-3-yl]-2-methyl-phenylsulfanyl}-N-(2,2,2-trifluoro-ethyl)-acetamide]
≥ 80%: pest or weed control at 200 ppm (Spodoptera littoralis) | pest or weed control at 200 ppm (Diabrotica balteata)

O=C(C[S+]([O-])c1ccc(C2=NO[C@@](c3cc(Cl)c(Cl)c(Cl)c3)(C(F)(F)F)C2)cc1Cl)NC1CC1 (stereo partly drawn) [Compound D5, 2-[2-chloro-4-[(5S)-5-(3,4,5-trichlorophenyl)-5-(trifluoromethyl)-4H-isoxazol-3-yl]phenyl]sulfinyl-N-cyclopropyl-acetamide]
≥ 80%: pest or weed control at 12.5 ppm (Myzus persicae)

O=C(CS(=O)(=O)c1ccc(C2=NO[C@@](c3cc(Cl)c(Cl)c(Cl)c3)(C(F)(F)F)C2)cc1Cl)NC1CC1 [Compound D6, 2-[2-chloro-4-[(5S)-5-(3,4,5-trichlorophenyl)-5-(trifluoromethyl)-4H-isoxazol-3-yl]phenyl]sulfonyl-N-cyclopropyl-acetamide]
≥ 80%: pest or weed control at 12.5 ppm (Myzus persicae)

Cc1cc(C2=NOC(c3cc(Cl)cc(Cl)c3)(C(F)(F)F)C2)cnc1SCC(=O)NC1CC1 (centres unmarked) [Compound F1, N-cyclopropyl-2-[[5-[5-(3,5-dichlorophenyl)-5-(trifluoromethyl)-4H-isoxazol-3-yl]-3-methyl-2-pyridyl]sulfanyl]acetamide]
≥ 80%: pest or weed control at 200 ppm (Spodoptera littoralis) | pest or weed control at 200 ppm (Tetranychus urticae) | pest or weed control at 200 ppm (Heliothis virescens) | pest or weed control at 200 ppm (Diabrotica balteata) | pest or weed control at 200 ppm (Plutella xylostella)

Cc1cc(C2=NOC(c3cc(Cl)cc(Cl)c3)(C(F)(F)F)C2)ncc1SCC(=O)NC1CC1 (centres unmarked) [Compound F2, N-cyclopropyl-2-[[6-[5-(3,5-dichlorophenyl)-5-(trifluoromethyl)-4H-isoxazol-3-yl]-4-methyl-3-pyridyl]sulfanyl]acetamide]
≥ 80%: pest or weed control at 200 ppm (Spodoptera littoralis) | pest or weed control at 200 ppm (Heliothis virescens) | pest or weed control at 12.5 ppm (Myzus persicae) | pest or weed control at 200 ppm (Diabrotica balteata) | pest or weed control at 200 ppm (Plutella xylostella)

Source: patent publication US8895587B2, “Insecticidal compounds based on arylthioacetamide derivatives” (Syngenta Participations AG, priority 2011, dated 2014)
